Experimental data: PMC6142817, “New Urea Derivatives Are Effective Anti-senescence Compounds Acting Most Likely via a Cytokinin-Independent Mechanism” (Frontiers in Plant Science, 2018)
Like-named read-outs stand apart in the source and are kept apart here.

Columns and labels:
[1] = test system: ARR5:GUS reporter gene; test: Arabidopsis ARR5:GUS reporter gene assay; type: in vivo, Arabidopsis thaliana; settings: for EC50: Arabidopsis thaliana, transgenic Arabidopsis plants, read-out: ARR5:GUS activation EC50; for ARR5:GUS activity, % of BA activity: 1 μM BA = 100%; for ARR5:GUS activation (in words): in vivo
Experimental: Transgenic Arabidopsis plants (Arabidopsis thaliana (L.) Heynh. accession Wassilewskija) harboring the GUS reporter gene (gene for β-glucuronidase) fused to 1.6 kb of the ARR5 (PARR5−GUS) gene promoter (D'Agostino et al., [2000]) were kindly provided by professor Thomas Schmülling. The assay was performed according to Romanov et al. ([2002]). β-Glucuronidase (GUS) activity was quantitatively determined by measuring fluorescence of 4-methylumbelliferyl (MU) on a Synergy H4 hybrid reader (Biotek, Winooski, VT) with excitation and emission wavelengths of 365 and 445 nm, respectively. GUS specific activity was determined as nmol MU × mg protein^−1 × h^−1. This was calculated by dividing the relative fluorescence units (obtained per hour) by protein content of the same sample. Protein extraction was done as described by Romanov et al. ([2002]) but its content was determined using a bicinchoninic acid reagent (Smith et al., [1985]). Finally we expressed the GUS activity in samples as a relative percentage, the activity of 1 μM BA being set as 100% activation. The concentration-dependent activity curves and EC50 values (for TDZ, tZ, BA, TD-iP, and TD-tZ) were constructed using Scion image program.

[2] = test system: excised wheat leaves (chlorophyll degradation in the dark); test: Wheat leaf senescence assay (WLSA); type: cell-based, Triticum aestivum cv. Hereward
Experimental: (§1) Tobacco callus, Amaranthus and Wheat leaf senescence assay (WLSA) were performed as described by Holub et al. ([1998]) including the number of repetitions in each assay. An exception to the published protocols was that the tobacco callus assay was performed in 6-well microtiter plates (with each well containing 3 ml of Murashige Skoog medium into which 0.1 g of callus was added). Each compound was tested at least twice in each assay and in a wider concentration range to obtain concentration-dependent activity curves. IC50 means compound concentration at which chlorophyll degradation is inhibited by 50% and EC50 means half the maximal effective concentration.
(§2) Amaranthus assay evaluates the induction of betacyanin synthesis in Amaranthus (Amaranthus caudatus var. atropurpurea) cotyledons, which is induced by cytokinins (Bamberger and Mayer, [1960]). The WLSA evaluates the ability of compounds to retard chlorophyll degradation in excised wheat leaves that are kept in the dark. The wheat leaf segments (Triticum aestivum cv. Hereward) were used in all other experiments requiring wheat. Arabidopsis (Arabidopsis thaliana) leaf senescence assay was performed with detached leaves from 30-day-old plants, which were grown in soil in phytotron under standard conditions (Rivero et al., [2014]). Four leaves of a combined weight of 60 mg were placed in a six-well plate and stored in the dark for 12 days at 22°C. The leaves (except the fresh control leaves) floated on water solutions of tested compounds. Fresh control leaves were leaves detached from a plant and immediately used for chlorophyll determination. The duration of the senescence assay of Arabidopsis leaves was prolonged to highlight the difference in chlorophyll content between a negative control and treatments. Arabidopsis leaves were losing chlorophyll more slowly than wheat leaves. Chlorophyll extraction and spectrophotometric determination of its content was done according to Holub et al. ([1998]).

[3] = test system: detached Arabidopsis leaves (chlorophyll loss in the dark); test: Arabidopsis leaf senescence assay; type: cell-based, Arabidopsis thaliana; settings: 1 μM, 12 days in the dark
Text: as §2

[4] = test system: cytokinin-dependent tobacco callus; test: Tobacco callus bioassay; type: cell-based; settings: for inhibition of callus growth at the highest concentration tested: 100 μM
Experimental: as §1

[5] = test system: Amaranthus caudatus cotyledon-hypocotyl explants; test: Amaranthus bioassay (betacyanin synthesis); type: cell-based, Amaranthus caudatus var. atropurpurea
Experimental: as §1, §2

[6] = target: T1, AHK3 (Arabidopsis thaliana, UniProt Q9C5U1); test: Cytokinin receptor activation assay in E. coli (AHK3); type: cell-based
T1 construct: expressed in transfected cells; host or cells: Escherichia coli strain KMI001, plasmid pSTV28-AHK3
T1 sequence (Q9C5U1 1-1036): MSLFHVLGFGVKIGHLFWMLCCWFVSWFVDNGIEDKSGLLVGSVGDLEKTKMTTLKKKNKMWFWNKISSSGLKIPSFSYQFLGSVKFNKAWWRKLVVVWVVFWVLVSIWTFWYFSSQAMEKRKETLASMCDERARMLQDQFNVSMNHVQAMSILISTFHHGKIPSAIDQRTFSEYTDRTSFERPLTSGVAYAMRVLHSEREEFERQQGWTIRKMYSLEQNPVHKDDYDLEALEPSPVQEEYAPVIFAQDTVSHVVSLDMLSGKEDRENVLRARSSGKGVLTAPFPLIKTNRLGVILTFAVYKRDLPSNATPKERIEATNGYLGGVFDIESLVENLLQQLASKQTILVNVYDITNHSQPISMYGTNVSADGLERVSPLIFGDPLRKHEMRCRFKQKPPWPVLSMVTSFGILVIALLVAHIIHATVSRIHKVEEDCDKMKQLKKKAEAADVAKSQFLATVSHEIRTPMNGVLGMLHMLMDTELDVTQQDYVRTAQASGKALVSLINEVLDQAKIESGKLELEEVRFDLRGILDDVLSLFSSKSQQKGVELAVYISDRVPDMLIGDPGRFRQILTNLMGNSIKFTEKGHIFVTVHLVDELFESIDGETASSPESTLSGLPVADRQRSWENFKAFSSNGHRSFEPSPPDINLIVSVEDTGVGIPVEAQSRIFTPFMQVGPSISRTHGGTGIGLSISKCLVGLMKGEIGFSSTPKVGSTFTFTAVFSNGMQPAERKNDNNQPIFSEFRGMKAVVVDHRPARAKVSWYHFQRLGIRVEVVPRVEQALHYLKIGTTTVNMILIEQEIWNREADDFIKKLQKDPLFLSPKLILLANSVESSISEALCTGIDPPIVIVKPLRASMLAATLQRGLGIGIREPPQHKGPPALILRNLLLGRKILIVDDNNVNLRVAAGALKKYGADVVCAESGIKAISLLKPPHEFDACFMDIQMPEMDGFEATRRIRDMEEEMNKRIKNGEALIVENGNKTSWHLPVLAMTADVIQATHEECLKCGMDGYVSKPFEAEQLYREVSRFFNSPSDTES
Text: (§3) The activity of this enzyme is finally measured in the assay and corresponds to the ability of the tested compound to activate this cytokinin receptor. Both assays were done at least twice and the presented graphs are the most representative examples.

[7] = target: CRE1/AHK4 (Arabidopsis thaliana, UniProt Q9C5U0); test: Cytokinin receptor activation assay in E. coli (CRE1/AHK4); type: cell-based; parameters: expressed in transfected cells; host or cells: Escherichia coli strain KMI001, plasmid pIN-IIIAHK4; settings: E. coli bacterial receptor assay; read-out: CRE1/AHK4 receptor activation EC50
Sequence of CRE1/AHK4 (Q9C5U0 whole entry): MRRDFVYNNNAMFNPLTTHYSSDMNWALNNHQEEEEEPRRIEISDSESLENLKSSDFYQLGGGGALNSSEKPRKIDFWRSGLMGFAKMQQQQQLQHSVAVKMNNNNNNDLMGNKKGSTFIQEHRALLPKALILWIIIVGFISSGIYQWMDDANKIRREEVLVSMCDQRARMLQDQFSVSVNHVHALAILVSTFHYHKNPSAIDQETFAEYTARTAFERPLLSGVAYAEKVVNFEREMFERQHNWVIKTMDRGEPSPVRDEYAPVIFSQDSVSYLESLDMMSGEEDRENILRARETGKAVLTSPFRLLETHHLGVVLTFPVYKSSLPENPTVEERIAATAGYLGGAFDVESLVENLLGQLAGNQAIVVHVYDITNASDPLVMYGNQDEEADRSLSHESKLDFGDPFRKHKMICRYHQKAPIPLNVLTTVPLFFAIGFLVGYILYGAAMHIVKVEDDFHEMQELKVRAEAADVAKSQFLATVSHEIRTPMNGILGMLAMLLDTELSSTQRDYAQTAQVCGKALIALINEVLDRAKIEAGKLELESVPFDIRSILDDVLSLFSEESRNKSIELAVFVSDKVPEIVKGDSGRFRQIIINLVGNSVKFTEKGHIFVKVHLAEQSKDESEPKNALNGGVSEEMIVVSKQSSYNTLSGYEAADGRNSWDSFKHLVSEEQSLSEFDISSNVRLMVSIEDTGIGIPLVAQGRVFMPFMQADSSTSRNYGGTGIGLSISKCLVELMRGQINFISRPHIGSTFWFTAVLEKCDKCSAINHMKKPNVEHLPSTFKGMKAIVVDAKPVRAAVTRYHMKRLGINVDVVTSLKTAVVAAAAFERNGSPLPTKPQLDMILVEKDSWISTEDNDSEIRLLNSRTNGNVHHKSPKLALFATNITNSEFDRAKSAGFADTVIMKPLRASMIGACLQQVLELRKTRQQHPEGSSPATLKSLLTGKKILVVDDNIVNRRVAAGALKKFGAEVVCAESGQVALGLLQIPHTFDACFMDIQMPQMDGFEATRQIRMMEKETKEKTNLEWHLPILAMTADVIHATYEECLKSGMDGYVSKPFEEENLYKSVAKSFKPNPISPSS
Text: as §3

[8] = Triticum aestivum, 120 h, detached wheat leaves in the dark, 5 days, concentration at which chlorophyll degradation is inhibited by 50%, read-out: Senescence bioassay (IC50)
[9] = Nicotiana tabacum, half the maximal effective concentration, N.A. = not active, read-out: Tobacco callus bioassay (EC50)
[10] = Amaranthus caudatus, betacyanin synthesis, N.A. = not active, read-out: Amaranthus bioassay (EC50)
[11] = betacyanin synthesis, N.A. = not active
[12] = detached wheat leaves in the dark, 5 days, concentration at which chlorophyll degradation is inhibited by 50%, read-out: Senescence bioassay (IC50)
[13] = half the maximal effective concentration, N.A. = not active
[14] = E. coli bacterial receptor assay, read-out: AHK3 receptor activation EC50

## c1ccc(CNc2ncnc3nc[nH]c23)cc1 [BA, N^6-benzyladenine, reference compound]
[1]
  EC50: 0.076 µM
[2]; [8]
  IC50: > 100 µM
[3]
  % more of chlorophyll retained than DMSO (negative control): 65%
[4]; [9]
  EC50: 0.06 µM
[5]; [10]
  EC50: 0.75 µM

## O=C(NCCO)Nc1cnns1 [Compound 1]
[2]; [8]
  IC50: 26 µM
[4]; [9]
  EC50: 15 µM
[5]; [11]
  Amaranthus bioassay (EC50, μM): inactive

## O=C(NCCCO)Nc1cnns1 [Compound 2]
[2]; [8]
  IC50: < 10 µM
[2]; [12]
  IC50: 8 µM
[4]; [9]
  EC50: 7 µM
[5]; [10]
  EC50: 75.5 µM

## COCCCNC(=O)Nc1cnns1 [Compound 4]
[2]; [8]
  IC50: 19 µM
[4]; [9]
  EC50: 2.2 µM
[5]; [10]
  EC50: 16.7 µM

## CC(O)CNC(=O)Nc1cnns1 (centres unmarked) [Compound 5]
[1]; compound at 10 μM
  ARR5:GUS activity, % of BA activity: 55–65%
[4]; [9]
  EC50: 7.1 µM
[5]; [11]
  Amaranthus bioassay (EC50, μM): inactive

## COCCN(C)C(=O)Nc1cnns1 [Compound 6]
[2]; [8]
  IC50: 25 µM
[4]; [13]
  Tobacco callus bioassay (EC50, μM): completely inactive
[5]; [11]
  Amaranthus bioassay (EC50, μM): inactive

## COCCN(CCOC)C(=O)Nc1cnns1 [Compound 7]
[1]
  ARR5:GUS activation (in words): completely inactive
[2]; [8]
  IC50: 62 µM
[4]; [13]
  Tobacco callus bioassay (EC50, μM): completely inactive
[5]; [11]
  Amaranthus bioassay (EC50, μM): inactive

## COC(CNC(=O)Nc1cnns1)OC [Compound 8]
[1]; compound at 10 μM
  ARR5:GUS activity, % of BA activity: 55–65%
[4]; [9]
  EC50: 2.4 µM
[5]; [10]
  EC50: 16.7 µM

## COC(=O)CNC(=O)Nc1cnns1 [Compound 9]
[2]; [8]
  IC50: > 100 µM
[4]; [9]
  EC50: 70 µM
[5]; [10]
  EC50: > 100 µM

## COCC(C)NC(=O)Nc1cnns1 (centres unmarked) [Compound 10]
[2]; [8]
  IC50: < 10 µM
[2]; [12]
  IC50: 8.6 µM
[4]; [9]
  EC50: 3.1 µM
[5]; [10]
  EC50: 26.5 µM

## CCOCCNC(=O)Nc1cnns1 [Compound 11]
[1]
  ARR5:GUS activation (in words): completely inactive
[2]; [8]
  IC50: 83 µM
[4]; [13]
  Tobacco callus bioassay (EC50, μM): completely inactive
[5]; [10]
  EC50: > 100 µM

## C#CCNC(=O)Nc1cnns1 [Compound 12]
[2]; [8]
  IC50: 17 µM
[4]; [9]
  EC50: 2.4 µM
[5]; [10]
  EC50: 15.3 µM

## C=CCNC(=O)Nc1cnns1 [Compound 13]
[1]; compound at 10 μM
  ARR5:GUS activity, % of BA activity: 55–65%
[2]; [8]
  IC50: < 10 µM
[2]; [12]
  IC50: 7.1 µM
[4]; [9]
  EC50: 1.6 µM
[5]; [10]
  EC50: 14.2 µM

## O=C(NCCCl)Nc1cnns1 [Compound 14]
[1]; compound at 1 μM
  ARR5:GUS activity, % of BA activity: 65%
[2]; Triticum aestivum, 120 h, read-out: Senescence bioassay (IC50, μM)
  IC50: 14 µM
[6]
  EC50: 15 µM
[4]; Nicotiana tabacum, read-out: Tobacco callus bioassay (EC50, μM)
  EC50: 0.87 µM
[4]; [13]
  Tobacco callus bioassay (EC50, μM): sub-micromolar range
[5]; Amaranthus caudatus, read-out: Amaranthus bioassay (EC50, μM)
  EC50: 10.8 µM

## CN(C)CCNC(=O)Nc1cnns1 [Compound 15]
[1]
  ARR5:GUS activation (in words): completely inactive
[4]; [13]
  Tobacco callus bioassay (EC50, μM): completely inactive
[5]; [11]
  Amaranthus bioassay (EC50, μM): inactive

## CC(CO)CCNc1ncnc2nc[nH]c12 (centres unmarked) [DHZ, dihydrozeatin, reference compound]
[2]; [8]
  IC50: > 100 µM
[4]; [9]
  EC50: 0.065 µM
[5]; [10]
  EC50: 10 µM

## CC(CO)CCNC(=O)Nc1cnns1 (centres unmarked) [TD-DHZ, N-(4-hydroxy-3-methyl-butyl)-N′-1,2,3-thiadiazol-5-yl-urea]
[2]; [8]
  IC50: 56 µM
[4]
  times less active than DHZ in tobacco callus assay: 10 times
[4]; [9]
  EC50: 0.82 µM
[5]; [10]
  EC50: 43 µM

## CC(C)=CCNC(=O)Nc1cnns1 [TD-iP, N-2-isopentenyl-N′-1,2,3-thiadiazol-5-yl-urea]
[1]
  EC50: 0.065 µM
[2]; [8]
  IC50: 93 µM
[7]
  EC50: 9.4 µM
[6]; [14]
  EC50: 1.4 µM
[4]
  inhibition of callus growth at the highest concentration tested: did not inhibit the growth of callus
[4]; [9]
  EC50: 0.017 µM
[5]; [10]
  EC50: 1.1 µM

## C/C(=C\CNC(=O)Nc1cnns1)CO [TD-tZ, N-[(E)-4-hydroxy-3-methyl-but-2-enyl]-N′-1,2,3-thiadiazol-5-yl-urea]
[1]
  EC50: 0.52 µM
[2]; [8]
  IC50: 13 µM
[7]
  EC50: 32 µM
[6]; [14]
  EC50: 0.19 µM
[4]
  inhibition of callus growth at the highest concentration tested: did not inhibit the growth of callus
[4]; [9]
  EC50: 0.01 µM
[5]; [10]
  EC50: 1.5 µM

## N^6-isopentenyladenine [iP, reference compound]
[2]; [12]
  IC50: > 200 µM
[4]; half the maximal effective concentration, N.A. = not active, read-out: Tobacco callus bioassay (EC50)
  EC50: 0.013 µM
[5]; betacyanin synthesis, N.A. = not active, read-out: Amaranthus bioassay (EC50)
  EC50: 2 µM
